In patent US8790712B2, “Constitutional function-improving agents” (Cosmo Oil Co., Ltd., priority 2004, dated 2014):

Columns and labels:
[1] = test system: Mice (35 to 45 weeks old, BALB/cAJc1); experiment: Migration distance in cage for 5 minutes (Example 4); format: in vivo, mouse; details: 10 mg/kg orally once a day for 7 days; for Exercise quantity (m): migration distance in 5 minutes
Description: Mice (35 to 45 weeks old, BALB/cAJc1) preliminary raised for 1 week were injected with 10 mg of ALA hydrochloride per 1 kg mouse body weight once a day for 7 days continuously. ALA hydrochloride was adjusted to a concentration of 0.5 g/ml with distilled water and orally administered to the mice. After the test, the mouse was put into a cage of 20 cm×20 cm in floor area, and its migration distance was measured for 5 minutes. The test was carried out using 5 male and 5 female mice, a total of 10 animals, for each plot, and the values were shown by average value. It was confirmed that the migration distance is long and the capacity for locomotion is improved in both cases of male and female in the ALA-treated plot.

[2] = test system: broiler primary chicks (Chunky); experiment: Body weight of broiler chicks fed ALA hydrochloride for 7 weeks (Example 9); format: in vivo, chick
Source text: A total of 300 chicks, 150 chicks for females and males respectively, of broiler primary chicks (Chunky) were purchased. After the purchase, chicks having abnormality (weakness or dwarf) were excluded, and the rest were equipped with wing belts for individual identification and their body weights were individually measured. […] Using 15 female or male chicks (30 chicks in total) as 1 group, they were put into a Chick Gird arranged in a closed type barn, and warmed by arranging an infrared ray lamp for animal use. The Chick Gird was expanded along with the growth of chicks. The feed and drinking water were constantly provided. The test groups were set to a total of 3 groups containing a control group in which a control feed (a standard testing feed SDB No. 1 was used from the neonatal to 3 weeks old, or a standard testing feed SDB No. 2 from 3 weeks old to 7 weeks old, (both manufactured by Nippon Formula Feed Mfg Co., Ltd., Table 9) without adding ALA hydrochloride is provided, and 2 test groups of ALA-10 ppm treated group and ALA-50 ppm treated group in which 10 ppm or 50 ppm of ALA hydrochloride is added to the feed and provided, and 3 repetition plots were arranged for each group. The number of chicks to be tested in each test group was as shown in Table 10. The test period was set to 7 weeks (7 weeks old) from the neonatal (start of the added feed provision), and total body weight of females or males was measured for each repetition plot at the time of the neonatal and at intervals of 1 week thereafter. In addition, about 2 ml of blood was collected from a brachial vein (basilic vein) of each of 18 chicks (3 female or male chicks/repetition) of each group at 3 weeks old and 7 weeks old, and about 1.5 ml thereof was subjected to a coagulation preventing treatment using heparin-lithium salt and then the blood plasma was separated to inspect the items of LDH, GOT (AST), γ-GTP, ALP, total protein, albumin, globulin, total cholesterol, triglyceride, glucose, uric acid, total bilirubin, uric acid, creatinine, calcium and inorganic phosphorus.

thymus cells = experiment: Thymus weight and number of thymus cells of aged mice (Example 2); format: in vivo, mouse; details: 10 mg/kg orally once a day for 7 days; for The number of cells: thymus
Description: Mice (35 to 45 weeks old, BALB/cAJc1) preliminary raised for 1 week were injected with 10 mg of ALA hydrochloride per 1 kg mouse body weight once a day for 7 days continuously. ALA hydrochloride was adjusted to a concentration of […] with distilled water and orally administered to the mice. After the test, each mouse was sacrificed and the weight of its thymus and the number of cells were measured. In addition, a subset test of lymphocytes was carried out using the obtained cells. The test was carried out using 5 mice per 1 plot, and their values were shown by average value. […] Also, since the cell of CD4-CD8+ was increased in the ALA-treated plot based on the subset test, it was confirmed that the cytotoxic T cell increases after its future differentiation, so that its immunological function improving ability was shown (Table 3). In addition, photographs of the thymus of untreated plot (un-administered group) and the thymus of ALA-treated plot (ALA-treated group) are shown in FIG. 1.

ddY-N mouse = experiment: Body weight gain of young mice over 28 days of administration (Example 7); format: in vivo
Description: A total of 120 animals (60 animals for each of male and female) of about 4 weeks old of ddY-N mouse produced by Nippon Ikagaku Dobutsu Shizai Kenkyusho Co., Ltd. was purchased and subjected to 1 week of medical inspection to confirm that their healthy state is normal, and then used in the test. The test plots were set to a total of 4 plots of a control plot in which distilled water for injection is administered into the stomach using a stomach tube at a ratio of 10 ml per 1 kg body weight of the mouse to be tested for 28 continuous days, and 3 test plots in which ALA hydrochloride is administered in the same manner at respective ratios of 5 mg, 10 mg and 25 mg per 1 kg body weight of the mouse to be tested. The mice to be tested were divided into 12 groups, 1 group including 5 males or females, in such a manner that average body weight of each group became almost uniform, and 3 groups of males or females were allotted to each plot and raised for 28 days. The mice to be tested were raised by each group using a series of five stainless steel cages arranged in a raising room set to a room temperature of 23.0±2.0° C. and an irradiation time of 12 hours/day. Body weight gain was calculated by measuring individual body weight at intervals of 1 week from the start of the test.

[3] = ALA-treated groups, 10 ppm or 50 ppm in feed, 7 weeks

Q: For `NCC(=O)CCC(=O)O` [ALA, 5-aminolevulinic acid], which “Symptoms such as abnormal stimulation and action” value ([1]; ALA-treated mice during the test) is on record?
A: The value was “symptoms such as abnormal stimulation and action were not observed”.

Q: What about the “Exercise quantity (m)” value ([1]; female mice) of the same molecule?
A: Its value is 25.5 m.

Q: What about the “Exercise quantity (m)” value ([1]; male mice) of the same molecule?
A: Its value is 41 m.

Q: And the “Growth (g), body weight” value ([2]; 10 ppm in feed, 1 week)?
A: Its value is 166.3 g.

Q: And the “Growth (g), body weight” value ([2]; 10 ppm in feed, 2 week)?
A: The value was 442.0 g.

Q: And the “Growth (g), body weight” value ([2]; 10 ppm in feed, 3 week)?
A: Its value is 817.2 g.

Q: And the “Growth (g), body weight” value ([2]; 10 ppm in feed, 4 week)?
A: The value was 1402.7 g.

Q: And the “Growth (g), body weight” value ([2]; 10 ppm in feed, 5 week)?
A: The value was 2063.9 g.

Q: And the “Growth (g), body weight” value ([2]; 10 ppm in feed, 6 week)?
A: The value was 2736.4 g.

Q: What about the “Growth (g), body weight” value ([2]; 10 ppm in feed, 7 week) of the same molecule?
A: The value was 3420.9 g.

Q: And the “Growth (g), body weight” value ([2]; 10 ppm in feed, neonatal)?
A: The value was 37.8 g.

Q: What about the “Growth (g), body weight” value ([2]; 50 ppm in feed, 1 week) of the same molecule?
A: Its value is 169.1 g.

Q: What about the “Growth (g), body weight” value ([2]; 50 ppm in feed, 2 week) of the same molecule?
A: Its value is 436.8 g.

Q: What about the “Growth (g), body weight” value ([2]; 50 ppm in feed, 3 week) of the same molecule?
A: The value was 807.7 g.

Q: And the “Growth (g), body weight” value ([2]; 50 ppm in feed, 4 week)?
A: The value was 1400.8 g.

Q: And the “Growth (g), body weight” value ([2]; 50 ppm in feed, 5 week)?
A: The value was 2036.7 g.

Q: And the “Growth (g), body weight” value ([2]; 50 ppm in feed, 6 week)?
A: The value was 2731.5 g.

Q: What about the “Growth (g), body weight” value ([2]; 50 ppm in feed, 7 week) of the same molecule?
A: Its value is 3403.3 g.

Q: What about the “Growth (g), body weight” value ([2]; 50 ppm in feed, neonatal) of the same molecule?
A: Its value is 37.7 g.

Q: What about the “General conditions during the test period” value [2, 3] of the same molecule?
A: Its value is “no abnormality was found in the general conditions”.

Q: What about the “Raising ratio and pathologic autopsy findings” value [2, 3] of the same molecule?
A: The value was “an abnormality considered to be due to its addition was not found”.

Q: And the “Thymus” value (thymus cells; female mice)?
A: The value was 0.044 g.

Q: What about the “Thymus” value (thymus cells; male mice) of the same molecule?
A: Its value is 0.034 g.

Q: What about the “The number of cells” value (thymus cells; female mice) of the same molecule?
A: Its value is 49.9 × 10^6.

Q: And the “The number of cells” value (thymus cells; male mice)?
A: Its value is 22.0 × 10^6.

Q: And the “Growth (growth curves, body weight gain)” value (ddY-N mouse; 10 mg/kg into the stomach for 28 days, compared with control, 5 mg/kg and 25 mg/kg plots, averages of males and females)?
A: Its value is “superior growth than other 3 plots”.

Q: And the Health state (ddY-N mouse; ALA-treated groups, 5, 10 and 25 mg/kg for 28 days)?
A: Its Health state is “abnormal health state was not fund”.
